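Five compound concentrations were applied to cells in 96-well plates for 48 hours; endpoints were derived by simple linear interpolation of the resulting dose-response curve. TGI: concentration producing complete growth inhibition.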
How the values were obtained:
Assay in all cases: growth of human tumour cells (NCI), 48 h
K-562 leukemia = test system: K-562 leukemia
RPMI-8226 leukemia = test system: RPMI-8226 leukemia
COLO 205 colon = test system: COLO 205 colon
A549 NSCLC = test system: A549 NSCLC
BT-549 breast = test system: BT-549 breast
CCRF-CEM leukemia = test system: CCRF-CEM leukemia
TK-10 renal = test system: TK-10 renal
A498 renal = test system: A498 renal
IGROV1 ovarian = test system: IGROV1 ovarian
HS 578T breast = test system: HS 578T breast
LOX IMVI melanoma = test system: LOX IMVI melanoma

| Structure (SMILES) | TGI (K-562 leukemia) [µM] | TGI (RPMI-8226 leukemia) [µM] | TGI (COLO 205 colon) [µM] | TGI (A549 NSCLC) [µM] | TGI (BT-549 breast) [µM] | TGI (CCRF-CEM leukemia) [µM] | TGI (TK-10 renal) [µM] | TGI (A498 renal) [µM] | TGI (IGROV1 ovarian) [µM] | TGI (HS 578T breast) [µM] | TGI (LOX IMVI melanoma) [µM] |
| --- | --- | --- | --- | --- | --- | --- | --- | --- | --- | --- | --- |
| COC(=O)c1c(C#C[Si](C)(C)C)c(C#C[Si](C)(C)C)c(C#C[Si](C)(C)C)c(C#C[Si](C)(C)C)c1C(=O)OC | > 100 | > 100 | > 100 | > 100 | > 100 | > 100 | > 100 | > 100 | > 100 | > 100 | – |
| O=c1/c(=C/c2ccc(-c3ccc(Cl)cc3Cl)o2)sc2n1[C@@H](c1ccc3c(c1)OCO3)C=C(c1cc(F)c(Cl)cc1Cl)N=2 | > 100 | 88 | > 100 | > 100 | > 100 | > 100 | 59 | 6 | > 100 | > 100 | > 100 |
| COc1ccc(NC(=S)NNC(=O)c2cc(-c3ccccc3)nc3ccccc23)cc1 | 46.5 | 43.2 | 97.4 | 47 | 39.8 | 34.8 | 46.8 | 35.1 | > 100 | 75.5 | – |
| C=C1C(=O)O[C@H]2C3C(=C(C)CC[C@@H]12)C(=O)[C@@H]1OC31C (stereo partly drawn) | 5.35 | 3.62 | 2.66 | 28.3 | 4.6 | 1.31 | 4.4 | 23.7 | 11.8 | 9.8 | 5.79 |
| CCCC(=O)OC1CC(n2cc(F)c(=O)[nH]c2=O)OC1CO (stereo not drawn) | > 10 | > 10 | > 10 | > 10 | > 10 | > 10 | > 8.81 | > 10 | > 10 | > 10 | > 10 |
| CCOC(=O)c1cn(C)nc1N/C(C)=C\C(=O)c1ccccc1 | > 100 | – | > 100 | > 100 | > 100 | > 100 | > 100 | – | > 100 | > 100 | > 100 |
| Cc1ccc2c(=O)c(C(=O)N(CCO)CCO)c[nH]c2n1 | > 100 | > 100 | > 100 | > 100 | > 100 | > 100 | > 100 | > 100 | > 100 | > 100 | > 100 |
| OC(O)(C(F)(F)F)C(F)(F)F | > 100 | > 100 | > 100 | > 100 | > 100 | > 100 | > 100 | > 100 | > 100 | > 100 | > 100 |
| N#Cc1c(C#N)c(-c2ccccc2)n(/N=C\c2ccccc2)c1N | > 100 | 40.1 | 72 | 71.4 | > 100 | 51.2 | > 100 | 77.4 | 84.7 | 61.3 | 32.8 |
| CSC1NNC2(C(=O)N1)c1ccccc1-c1ccccc12 (stereo not drawn) | > 10 | > 10 | > 10 | > 10 | > 10 | > 10 | > 10 | – | > 10 | > 10 | > 10 |
| Cc1nn(-c2ccccn2)c2c1C(SC#N)=C(C=O)CC2 | 39 | 63 | 22.2 | 46 | 38.9 | 6.43 | 6.03 | 5.57 | 23.7 | > 100 | 29.1 |
| CCOC(=O)CCC(C(=O)OCC)n1nnc2cc(Nc3c(C)[n+]([O-])c4ccc(Cl)cc4[n+]3[O-])ccc21 (stereo not drawn) | > 100 | > 100 | > 100 | > 100 | > 100 | > 100 | > 100 | > 100 | > 100 | > 100 | > 100 |
| CCOC(=O)c1cc(-c2ccn(C(C)=O)c2)c(-c2cc(C)co2)[nH]1 | > 100 | > 100 | > 100 | > 100 | > 100 | > 100 | > 100 | > 100 | > 100 | > 100 | > 100 |
| COC(=O)[C@@H]1O[C@]12[C@@H](CO[Si](C)(C)C(C)(C)C)O[C@@H](n1cc(C)c(=O)[nH]c1=O)[C@@H]2O[Si](C)(C)C(C)(C)C | 40.2 | – | > 100 | 64 | 32.6 | 4.79 | > 100 | – | 21.6 | 42.5 | 10.2 |
| c1ccc2c(c1)c1c3n2-c2cc(on2)C3CCC1 (stereo not drawn) | > 100 | > 100 | > 100 | > 100 | > 100 | > 100 | > 100 | > 100 | > 100 | > 100 | > 100 |
| COC(=O)C(C(=O)OC)C1CC(=O)c2c(Br)sc(Br)c21 (stereo not drawn) | 53.5 | 26.4 | 28.5 | 68.8 | 35.7 | 15.4 | 86.7 | > 100 | 29.3 | 85.7 | 26.7 |

| Structure (SMILES) | TGI (K-562 leukemia) [µM] | TGI (RPMI-8226 leukemia) [µM] | TGI (COLO 205 colon) [µM] | TGI (A549 NSCLC) [µM] | TGI (BT-549 breast) [µM] | TGI (CCRF-CEM leukemia) [µM] | TGI (TK-10 renal) [µM] | TGI (A498 renal) [µM] | TGI (IGROV1 ovarian) [µM] | TGI (HS 578T breast) [µM] | TGI (LOX IMVI melanoma) [µM] |
| --- | --- | --- | --- | --- | --- | --- | --- | --- | --- | --- | --- |
| COc1ccc(C(C)NNC(=O)c2ccncc2)cc1F (stereo not drawn) | > 100 | > 100 | > 100 | > 100 | > 100 | > 100 | > 100 | > 100 | > 100 | > 100 | > 100 |
| S=C(Nc1ccc2c(c1)Cc1ccccc1-2)Nc1ccc2c(c1)Cc1ccccc1-2 | 74.5 | > 100 | > 100 | > 100 | > 100 | 27.2 | > 100 | > 100 | > 100 | > 100 | > 100 |
| O=c1oc2ccccc2c(O)c1Cc1cccc(Cc2c(O)c3ccccc3oc2=O)c1 | > 100 | > 100 | > 100 | > 100 | > 100 | > 100 | > 100 | > 100 | > 100 | > 100 | > 100 |
| Cn1c(=O)c2[nH]c(CCC(=O)O)nc2n(C)c1=O | > 100 | > 100 | > 100 | > 100 | > 100 | > 100 | > 100 | > 100 | > 100 | > 100 | > 100 |
| COC(=O)C1[C@H](C(=O)OC)C1(Br)CBr (stereo partly drawn) | > 100 | > 100 | > 100 | > 100 | > 100 | – | > 100 | > 100 | > 100 | > 100 | > 100 |
| O=C(NCc1cccnc1)C(=O)NCc1cccnc1 | > 100 | > 100 | > 100 | > 100 | > 100 | – | > 100 | > 100 | > 100 | > 100 | > 100 |
| N#Cc1c(-c2ccc(Cl)cc2)cc(-c2nc3ccccc3[nH]2)nc1N | 54.9 | 47.1 | 20.1 | 20.9 | 30.5 | 45.3 | 27.3 | 22.6 | 22.2 | 73.3 | 28 |
| O=S(=O)(/N=C1/SC(=Nc2ccccc2)N(c2ccccc2)/C1=N/S(=O)(=O)c1ccccc1)c1ccccc1 | 66.6 | 44.6 | 64.1 | 69 | 79.2 | 55 | 91.8 | 37.6 | 46.7 | > 100 | – |
| COc1ccc(C2NC(=O)Nc3c2c(=O)oc2c3ccc3ccccc32)cc1 (stereo not drawn) | > 100 | > 100 | > 100 | > 100 | > 100 | > 100 | > 100 | > 100 | > 100 | > 100 | > 100 |
| O=C1C(=Cc2ccccc2[N+](=O)[O-])N=C(c2ccccc2)N1n1c(-c2ccccc2)nc2ccccc2c1=O | > 100 | 66.6 | > 100 | > 100 | > 100 | 78 | > 100 | – | > 100 | 86 | 68.5 |
| O=C(NCCCCNCCCNC(=O)OCc1ccccc1)OCc1ccccc1 | 80.7 | > 100 | 33.8 | > 100 | > 100 | 82.1 | > 100 | 36.8 | 73.9 | 88.8 | – |
| Cc1cccc(C(O)c2cccnc2)c1O (stereo not drawn) | > 100 | > 100 | > 100 | > 100 | > 100 | > 100 | > 100 | – | > 100 | > 100 | > 100 |
| Cn1c(=O)c2sc3cc4c(cc3c2c2ccccc21)sc1c(=O)n(C)c2ccccc2c14 | – | > 100 | > 100 | > 100 | 46.4 | > 100 | > 100 | > 100 | > 100 | > 100 | – |
| Cc1nnc(CC#N)n1NC(=O)CC#N | > 100 | – | > 100 | > 100 | > 100 | > 100 | > 100 | > 100 | > 100 | > 100 | > 100 |
| CC1(C)Oc2ccc3c(=O)c4ccccc4oc3c2C1C(=O)O (stereo not drawn) | > 100 | – | > 100 | > 100 | > 100 | > 100 | > 100 | > 100 | > 100 | > 100 | – |

Source: PubChem BioAssay (NCI)
